Measurements taken from patent US20240255506A1, “PAIRED-CELL PROFILING SYSTEMS FOR HIGH-THROUGHPUT SCREENING SYNCYTIUM FORMATION” (priority 2023, published 2024).

What was measured:
[1] = test system: SARS-COV-2 D614G live virus; type: cell-based; conditions: Vero E6 and Vero E6-TMPRSS2 GFP1-10/GFP11 cells; CPZ 16 μM, promethazine 12.5 μM, fluvoxamine 12.5 μM, 24 h
SARS-COV-2 D614G virus = type: cell-based; conditions: both cell lysate and supernatant samples after virus infection; Vero E6, Vero E6-TMPRSS2 and A549-ACE2 cells
[2] = test system: SARS-COV-2 spike-induced syncytium formation in A549-ACE2 cells; type: cell-based; conditions: A549-ACE2-GFP1-10 receiver cells, HEK293T-GFP-11 sender cells expressing WT D614G spike; drugs added 3 h after seeding, imaged after 24 h; vs DMSO-treated control
[3] = test system: SARS-COV-2 spike-induced syncytium formation in Vero E6 cells; type: cell-based; conditions: Vero E6-GFP1-10 receiver cells, HEK293T-GFP-11 sender cells expressing WT D614G spike; drugs added 3 h after seeding, imaged after 24 h; vs DMSO-treated control
SARS-COV-2 D614G = conditions: hamster, in vivo; for infectious SARS-COV-2 titer in lung tissues (plaque assay) / virus RdRp gene expression level in lung tissues: ip

Compound | syncytium formation in SARS-COV-2 D614G-infected cells [1] | expression levels of SARS-COV-2 RNA-dependent RNA polymerase (RdRp) (SARS-COV-2 D614G virus) | syncytium formation [2] | syncytium formation [3] | area of positivity of the SARS-COV-2 nucleocapsid protein in lung tissues (SARS-COV-2 D614G) | body weight of the hamsters (SARS-COV-2 D614G) | syncytium-like multinucleated cells within SARS-COV-2 nucleocapsid-positively stained lung tissues (SARS-COV-2 D614G) | infectious SARS-COV-2 titer in lung tissues (plaque assay) (SARS-COV-2 D614G) | virus RdRp gene expression level in lung tissues (SARS-COV-2 D614G)
CN(C)CCCN1c2ccccc2Sc2ccc(Cl)cc21 [chlorpromazine] | inhibited syncytium formation | greatly reduced | greatly impeded syncytium formation | greatly impeded syncytium formation | reduced | no significant change | less syncytium-like multinucleated cells were detected | reduced | reduced
CC(CN1c2ccccc2Sc2ccccc21)N(C)C (stereo not shown) [promethazine] | inhibited syncytium formation | greatly reduced | greatly impeded syncytium formation | greatly impeded syncytium formation |  |  |  |  | 
COCCCC/C(=N\OCCN)c1ccc(C(F)(F)F)cc1 [fluvoxamine] | inhibited syncytium formation | greatly reduced | greatly impeded syncytium formation | greatly impeded syncytium formation | reduced | no significant change | less syncytium-like multinucleated cells were detected | reduced | reduced
